Experimental data as given in patent publication US11780845B2 (Relay Therapeutics, Inc., priority 2019, dated 2023).

What was measured:
SNU-16 = assay: Cell SNU-16 assay; assay type: cell-based
FGFR2 = FGFR2 (Homo sapiens (Human), UniProt P21802); assay: Biochemical FGFR2 Caliper assay
[1] = Homo sapiens, SNU-16, SNU-16 cells

Sequence of FGFR2 (P21802 22-821): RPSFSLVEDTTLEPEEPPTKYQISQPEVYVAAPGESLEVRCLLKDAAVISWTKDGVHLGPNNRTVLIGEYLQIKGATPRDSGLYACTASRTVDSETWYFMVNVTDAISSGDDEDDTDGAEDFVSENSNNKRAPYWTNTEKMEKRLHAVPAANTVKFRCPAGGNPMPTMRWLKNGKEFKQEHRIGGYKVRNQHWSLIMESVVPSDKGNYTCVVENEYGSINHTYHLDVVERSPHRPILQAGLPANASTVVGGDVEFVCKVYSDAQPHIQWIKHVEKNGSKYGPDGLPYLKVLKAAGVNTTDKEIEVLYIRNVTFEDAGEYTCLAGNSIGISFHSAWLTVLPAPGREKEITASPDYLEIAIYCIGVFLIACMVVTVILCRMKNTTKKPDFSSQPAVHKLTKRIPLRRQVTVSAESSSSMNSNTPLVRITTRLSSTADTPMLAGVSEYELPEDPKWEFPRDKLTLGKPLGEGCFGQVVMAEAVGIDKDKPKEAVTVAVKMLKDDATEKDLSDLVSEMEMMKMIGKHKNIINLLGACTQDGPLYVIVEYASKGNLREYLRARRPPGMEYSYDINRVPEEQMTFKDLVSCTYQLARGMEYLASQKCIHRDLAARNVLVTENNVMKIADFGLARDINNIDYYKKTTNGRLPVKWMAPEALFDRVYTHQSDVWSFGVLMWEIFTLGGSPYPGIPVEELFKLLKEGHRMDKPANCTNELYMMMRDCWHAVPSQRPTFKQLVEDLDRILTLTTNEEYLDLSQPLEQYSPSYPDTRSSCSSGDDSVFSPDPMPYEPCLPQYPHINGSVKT

Row | Compound | IC50 (SNU-16; SNU-16 cells) [nM] | IC50 (FGFR2) [nM] | also measured
1 | C#Cc1ccc(-c2c(-c3ccc(Oc4nccc(C)n4)c(F)c3)c3c(N)ncnc3n2C(C)C)c(C)n1 (atropisomer, axis not shown) [Example 1258] | ≤ 100 | – | –
2 | C#Cc1ccc(-c2c(-c3ccc(Oc4nccc(C)n4)c(F)c3)c3c(N)ncnc3n2C(C)C)c(C)n1 (atropisomer, axis not shown) [Example 1259] | ≤ 100 | – | –
3 | C#Cc1cc(C)c(-c2c(-c3ccc(Oc4nccc(C)n4)c(F)c3)c3c(N)ncnc3n2C(C)C)cn1 (atropisomer, axis not shown) [Example 1307] | ≤ 100 | – | –
4 | C#Cc1cc(C)c(-c2c(-c3ccc(Oc4nccc(C)n4)c(F)c3)c3c(N)ncnc3n2C(C)C)cn1 (atropisomer, axis not shown) [Example 1308] | ≤ 100 | – | –
5 | C#Cc1cc(C)c(-c2c(-c3ccc(Oc4nccc(C)n4)c(F)c3)c3c(N)ncnc3n2C)c(F)n1 (atropisomer, axis not shown) [Example 1339] | ≤ 100 | – | –
6 | C#Cc1cc(C)c(-c2c(-c3ccc(Oc4nccc(C)n4)c(F)c3)c3c(N)ncnc3n2C)c(F)n1 (atropisomer, axis not shown) [Example 1340] | ≤ 100 | – | –
7 | C#Cc1cc(C)c(-c2c(-c3ccc(Oc4nccc(C)n4)c(F)c3)c3c(N)ncnc3n2C)c(C)n1 (atropisomer, axis not shown) [Example 1342] | ≤ 100 | – | –
8 | C#Cc1cc(C)c(-c2c(-c3ccc(Oc4nccc(C)n4)c(F)c3)c3c(N)ncnc3n2C)c(C)n1 (atropisomer, axis not shown) [Example 1344] | ≤ 100 | – | –
9 | C#Cc1cc(C)c(-c2c(-c3ccc(Oc4nccc(C)n4)c(F)c3)c3c(N)ncnc3n2[C@H]2C[C@H](O)C2)cn1 (atropisomer, axis not shown) [Example 1357] | – | < 100 | IC50 (SNU-16; [1]): ≤ 100 nM
10 | C#Cc1ncc(-c2c(-c3ccc(Oc4nccc(C)n4)c(F)c3)c3c(N)ncnc3n2C(C)C)c(C)c1F (atropisomer, axis not shown) [Example 1360] | ≤ 100 | – | –
11 | C#Cc1ncc(-c2c(-c3ccc(Oc4nccc(C)n4)c(F)c3)c3c(N)ncnc3n2C(C)C)c(C)c1F (atropisomer, axis not shown) [Example 1361] | ≤ 100 | – | –
12 | C#Cc1cc(OC)c(-c2c(-c3ccc(Oc4nccc(C)n4)c(F)c3)c3c(C)ncnc3n2C)c(C)n1 (atropisomer, axis not shown) [Example 1446] | ≤ 100 | < 100 | –
13 | C#Cc1cc(C)c(-c2c(-c3ncc(Oc4nccc(C)n4)cc3F)c3c(N)ncnc3n2C)c(C)n1 (atropisomer, axis not shown) [Example 1453] | – | < 100 | IC50 (SNU-16; [1]): ≤ 100 nM
14 | C#Cc1cc(C)c(-c2c(-c3ncc(Oc4nccc(C)n4)cc3F)c3c(N)ncnc3n2C)c(C)n1 (atropisomer, axis not shown) [Example 1493] | ≤ 100 | – | –
15 | C=C(C)C(=O)Nc1ccc(-c2c(-c3ccc(Oc4nccc(C)n4)c(F)c3)c3c(N)ncnc3n2C)cc1 [Example 1028] | – | – | IC50 (SNU-16; Homo sapiens, SNU-16 cells): ≤ 100 nM
16 | C=CC(=O)Nc1ccc(-c2c(-c3ccc(Oc4nccc(C)n4)c(F)c3)c3c(C)ncnc3n2C)c(C)c1 [Example 1127] | ≤ 100 | – | –
17 | C=C(C)C(=O)Nc1ccc(-c2c(-c3ccc(-n4cc(C)cn4)cc3)c3c(N)ncnc3n2C)cc1 [Example 1191] | – | 1000 to 100000 | –
18 | C#Cc1ccc(-c2c(-c3ccccc3)c3c(N)ncnc3n2C)cn1 [Example 1192] | – | < 100 | –
19 | C=Cc1cc(-c2c(-c3ccccc3)c3c(N)ncnc3n2C)ccn1 [Example 1195] | – | 100 to 250 | –
20 | C#Cc1cc(C)c(-c2c(-c3ccc(Oc4nccc(C)n4)cc3F)c3c(N)ncnc3n2C)cn1 [Example 1196] | – | 250 to 1000 | –
21 | C=C(C)C(=O)Nc1ccc(-c2c(-c3cc4ccccc4s3)c3c(N)ncnc3n2C)cc1 [Example 1209] | – | 250 to 1000 | –

Row | Compound | IC50 (SNU-16; SNU-16 cells) [nM] | IC50 (FGFR2) [nM] | also measured
22 | C=CC(=O)Nc1ccc(-c2c(-c3ccc(Oc4ccccc4)cc3)c3c(C)ncnc3n2C(C)C)cc1 [Example 1218] | – | 1000 to 100000 | –
23 | C=CC(=O)Nc1ccc(-c2c(-c3ccc(Oc4cccc(C)n4)cc3)c3c(C)ncnc3n2C)cc1 [Example 1220] | – | < 100 | –
24 | C=C(C)C(=O)Nc1ccc(-c2c(-c3cc(-c4ccccc4)cs3)c3c(N)ncnc3n2C)cc1 [Example 1221] | – | 250 to 1000 | –
25 | C=C(C)C(=O)Nc1ccc(-c2c(-c3ccc(-c4coc(C)n4)cc3)c3c(N)ncnc3n2C)cc1 [Example 1224] | – | 250 to 1000 | –
26 | C=CC(=O)Nc1ccc(-c2c(-c3ccc(Oc4ccccc4)cc3)c3c(C)ncnc3n2C)cc1 [Example 1225] | – | 250 to 1000 | –
27 | C=C(C)C(=O)Nc1ccc(-c2c(-c3ccc(-n4cc(C(F)(F)F)cn4)cc3)c3c(N)ncnc3n2C)cc1 [Example 1226] | – | 1000 to 100000 | –
28 | C=C(C)C(=O)Nc1ccc(-c2c(-c3ccc(-c4nc(C)no4)cc3)c3c(N)ncnc3n2C)cc1 [Example 1244] | – | 1000 to 100000 | –
29 | C=C(C)C(=O)Nc1ccc(-c2c(-c3sc4ccccc4c3C)c3c(N)ncnc3n2C)cc1 [Example 1247] | – | 1000 to 100000 | –
30 | C=CC(=O)Nc1ccc(-c2[nH]c3ncnc(C)c3c2-c2ccc(Oc3ccccc3)cc2)cc1 [Example 1254] | – | 1000 to 100000 | –
31 | C=CC(=O)Nc1ccc(-c2[nH]c3ncnc(C)c3c2-c2cc3ccccc3s2)cc1 [Example 1256] | – | 1000 to 100000 | –
32 | C=C(C)C(=O)Nc1ccc(-c2c(-c3ccc(-c4noc(C5CC5)n4)c([N+](=O)[O-])c3)c3c(N)ncnc3n2C)cc1 [Example 1317] | – | 1000 to 100000 | –
33 | C=C(C)C(=O)Nc1ccc(-c2c(-c3ccc(-c4noc(C5CC5)n4)cc3)c3c(N)ncnc3n2C)cn1 [Example 1362] | – | 100 to 250 | –
34 | C#Cc1cc(C)c(-c2c(-c3ccc(Oc4nccc(C)n4)c(F)c3)c3c(C)ncnc3n2C)c(C)n1 [Example 1409] | ≤ 100 | – | –
35 | C#Cc1cc(C)c(-c2c(-c3ccc(Oc4nccc(C)n4)c(F)c3)c3c(C)ncnc3n2C)c(C)n1 [Example 1410] | ≤ 100 | – | –
36 | C#Cc1cc(C)c(-c2c(-c3ccc(Oc4nccc(C)n4)c(F)c3)c3c(C)ncnc3n2C)c(F)n1 [Example 1414] | ≤ 100 | – | –
37 | C#Cc1cc(C)c(-c2c(-c3ccc(Oc4nccc(C)n4)c(F)c3)c3c(C)ncnc3n2C)c(F)n1 [Example 1415] | ≤ 100 | – | –
38 | [2H]C#Cc1cc2c(cn1)-c1c(-c3ccc(Oc4nccc(C)n4)c(F)c3)c3c(N)ncnc3n1CCC2 [Example 1449] | – | < 100 | –
39 | C#Cc1cc(OC)c(-c2c(-c3ncc(Oc4nccc(C)n4)cc3F)c3c(N)ncnc3n2C)c(C)n1 [Example 1451] | – | < 100 | –
40 | C#Cc1cc(OC)c(-c2c(C3=CC[C@H](C(=O)N4CCC[C@H]4C#N)CC3)c3c(C)ncnc3n2C)c(C)n1 [Example 1474] | ≤ 100 | – | –
41 | C#Cc1cc(OC)c(-c2c(-c3ncc(Oc4nccc(C)n4)cc3F)c3c(N)ncnc3n2C)cn1 [Example 1489] | ≤ 100 | – | –
42 | C#Cc1cc2c(cn1)-c1c(-c3ccc(Oc4nccc(C)n4)c(F)c3)c3c(N)ncnc3n1CCO2 [Example 1494] | ≤ 100 | – | –

Second part, led by results:

Row | IC50 (SNU-16; SNU-16 cells) [nM] | IC50 (FGFR2) [nM] | Compound | also measured
43 | ≤ 100 | 100 to 250 | C#Cc1cc(C)c(-c2c(C3=CC[C@H](C(=O)N4CCC[C@H]4C)CC3)c3c(N)ncnc3n2C)c(F)n1 (atropisomer, axis not shown) [Example 1348] | –
44 | ≤ 100 | – | C#Cc1cc(C)c(-c2c(C3=CC[C@H](C(=O)N4CCC[C@H]4C)CC3)c3c(N)ncnc3n2C)c(F)n1 (atropisomer, axis not shown) [Example 1349] | –
45 | ≤ 100 | – | C#Cc1cc(C)c(-c2c(C3=CC[C@H](C(=O)N4CCC[C@H]4C#N)CC3)c3c(N)ncnc3n2C)c(C)n1 (atropisomer, axis not shown) [Example 1470] | –
46 | ≤ 100 | – | C#Cc1cc(C)c(-c2c(C3=CC[C@@H](C(=O)N4CCC[C@H]4C#N)CC3)c3c(N)ncnc3n2C)c(C)n1 (atropisomer, axis not shown) [Example 1472] | –
47 | ≤ 100 | – | C=CC(=O)Nc1ccc(-c2c(C3=CC[C@H](C(=O)N4CCCC4)CC3)c3c(N)ncnc3n2C)cc1 (single isomer, unassigned) [Example 1049] | –
48 | ≤ 100 | – | C=CC(=O)Nc1ccc(-c2c(C3=CC[C@@H](C(=O)N4CCCC4)CC3)c3c(N)ncnc3n2C)cc1 (single isomer, unassigned) [Example 1051] | –
49 | 1000 to 100000 | – | C=C(C)C(=O)Nc1cc(C)c(-c2c(C3=CC[C@@H](C(=O)N4CCCC4)CC3)c3c(N)ncnc3n2C)c(C)c1 (single isomer, unassigned) [Example 1485] | –
50 | 1000 to 100000 | – | C=C(C)C(=O)Nc1cc(C)c(-c2c(C3=CC[C@H](C(=O)N4CCCC4)CC3)c3c(N)ncnc3n2C)c(C)c1 (single isomer, unassigned) [Example 1487] | –
51 | ≤ 100 | – | C#Cc1ncc(-c2c(C3=CC[C@H](C(=O)N4CCCC4)CC3)c3c(C)ncnc3n2C)c(C)n1 [Example 1179] | –
52 | – | 1000 to 100000 | C=C(C)C(=O)Nc1ccc(-c2c(C3=CCN(c4ccccc4)CC3)c3c(N)ncnc3n2C)cc1 [Example 1216] | –
53 | – | 1000 to 100000 | C=C(C)C(=O)Nc1ccc(-c2c(C3=CCC(c4nc(C)no4)CC3)c3c(N)ncnc3n2C)cc1 (stereo not drawn) [Example 1222] | –
54 | – | 1000 to 100000 | C=CC(=O)Nc1ccc(-c2c(-c3cc4ccccc4s3)c3c(C)ncnc3n2C)cc1 [Example 1223] | –
55 | – | 1000 to 100000 | C=C(C)C(=O)Nc1ccc(-c2c(C3=CCC(c4ccccc4)CC3)c3c(N)ncnc3n2C)cc1 (stereo not drawn) [Example 1227] | –
56 | – | 1000 to 100000 | C=CC(=O)Nc1ccc(-c2c(-c3ccccc3)c3c(C)ncnc3n2C)cc1 [Example 1248] | –
57 | – | 1000 to 100000 | C=C(C)C(=O)Nc1ccc(-c2c(-c3ccc(-c4noc(C5CC5)n4)c(N)c3)c3c(N)ncnc3n2C)cc1 [Example 1318] | –
58 | – | 100 to 250 | C=C(F)C(=O)Nc1ccc(-c2c(-c3ccc(-c4noc(C5CC5)n4)cc3)c3c(N)ncnc3n2C)cc1 [Example 1326] | –
59 | – | 250 to 1000 | C=C(C)C(=O)Nc1ccc(-c2c(-c3ccc(-c4noc(C5CC5)n4)cc3)c3c(N)ncnc3n2C)cc1 [Example 1333] | –
60 | – | < 100 | C=CC(=O)Nc1ccc(-c2c(-c3ccc(-c4noc(C5CC5)n4)cc3)c3c(N)ncnc3n2C)cc1 [Example 1335] | –
61 | – | < 100 | C#Cc1cc2c(cn1)-c1c(C3=CC[C@@H](C(=O)N4CCC[C@H]4C#N)CC3)c3c(N)ncnc3n1CCC2 [Example 1444] | –
62 | – | 250 to 1000 | C#Cc1cc2c(cn1)-c1c(C3=CC[C@H](C(=O)N4CCC[C@H]4C#N)CC3)c3c(N)ncnc3n1CCC2 [Example 1496] | –
